Reference: patent publication US20240269139A1, “COMPOUNDS FOR TARGETED PROTEIN DEGRADATION OF KINASES” (DANA-FARBER CANCER INSTITUTE, INC., priority 2020, published 2024)
Read-outs that look alike come from different tables or passages of the source.

Key:
Assay type in all cases: cell-based
[1] = molecular target: protein kinases (human kinome) (Homo sapiens, UniProt Q16539)
[2] = molecular target: T1, protein kinases (human kinome) (Homo sapiens, UniProt Q9UEE5); settings: STK17A Q9UEE5
T1 sequence (Q9UEE5 1-414): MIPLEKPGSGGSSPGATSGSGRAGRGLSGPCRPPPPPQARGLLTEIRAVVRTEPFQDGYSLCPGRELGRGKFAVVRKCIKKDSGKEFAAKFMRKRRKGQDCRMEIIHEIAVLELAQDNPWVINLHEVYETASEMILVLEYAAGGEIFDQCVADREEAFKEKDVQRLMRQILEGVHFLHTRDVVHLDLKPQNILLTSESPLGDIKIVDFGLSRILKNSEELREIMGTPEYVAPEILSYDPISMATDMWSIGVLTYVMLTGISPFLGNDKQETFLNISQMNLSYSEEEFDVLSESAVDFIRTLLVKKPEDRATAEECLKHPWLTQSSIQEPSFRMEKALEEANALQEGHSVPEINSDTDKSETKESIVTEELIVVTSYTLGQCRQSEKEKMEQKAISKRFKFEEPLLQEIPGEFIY

[3] = molecular target: protein kinases (human kinome) (Homo sapiens, UniProt P45984); settings: MAPK9 P45984-1
protein kinases (human kinome) (Homo sapiens, UniProt P45984), sequence (P45984 whole entry): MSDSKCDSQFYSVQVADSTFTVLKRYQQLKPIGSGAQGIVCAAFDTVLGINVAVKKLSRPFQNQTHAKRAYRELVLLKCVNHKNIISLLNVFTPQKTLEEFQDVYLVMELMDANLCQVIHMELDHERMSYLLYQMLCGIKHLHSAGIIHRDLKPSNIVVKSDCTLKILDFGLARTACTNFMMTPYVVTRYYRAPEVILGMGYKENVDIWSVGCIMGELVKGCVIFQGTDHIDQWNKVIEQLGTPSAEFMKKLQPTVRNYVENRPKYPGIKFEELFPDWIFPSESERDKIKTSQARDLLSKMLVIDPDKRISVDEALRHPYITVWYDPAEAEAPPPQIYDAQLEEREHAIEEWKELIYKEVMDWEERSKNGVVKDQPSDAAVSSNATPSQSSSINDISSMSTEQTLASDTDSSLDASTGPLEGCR

protein kinases (human kinome) (Homo sapiens, UniProt Q16539), sequence (Q16539 whole entry): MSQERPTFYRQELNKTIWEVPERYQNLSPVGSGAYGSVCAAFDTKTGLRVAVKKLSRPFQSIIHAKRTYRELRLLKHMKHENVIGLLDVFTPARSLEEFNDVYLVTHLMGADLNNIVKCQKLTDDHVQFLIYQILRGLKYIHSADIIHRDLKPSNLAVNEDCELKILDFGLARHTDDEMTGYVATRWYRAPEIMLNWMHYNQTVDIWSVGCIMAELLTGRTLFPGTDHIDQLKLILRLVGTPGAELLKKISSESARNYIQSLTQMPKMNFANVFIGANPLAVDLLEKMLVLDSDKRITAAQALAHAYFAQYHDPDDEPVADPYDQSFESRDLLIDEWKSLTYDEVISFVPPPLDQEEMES

Cc1ccc(C(=O)Nc2ccc(CN3CCN(CCOCCOCCNC(=O)CNc4cccc5c4C(=O)N(C4CCC(=O)NC4=O)C5=O)CC3)c(C(F)(F)F)c2)cc1C#Cc1cnc2cccnn12 (stereo not drawn) [TL13.150]
logFC ([1]; MAPK14 (Q16539) protein abundance, degrader vs DMSO, down): −0.3738 | logFC MAPK14 ([1]; MAPK14, accession Q16539, experiment wp081, direction of change down): −0.3738

CS(=O)(=O)Nc1cccc(-c2csc3cnc(Nc4ccc(N5CCN(CCOCCOCCOc6cccc7c6C(=O)N(C6CCC(=O)NC6=O)C7=O)CC5)cc4)nc23)c1 (stereo not drawn) [RSS0628]
logFC ([2]; experiment wp045): −1.48 | logFC STK17A ([2]; experiment wp045): −1.48

C[C@@H]1C[C@@H](O)c2ncnc(N3CCN(C(=O)[C@H](CNCCCCCCCCCCc4cccc5c4C(=O)N(C4CCC(=O)NC4=O)C5=O)c4ccc(Cl)cc4)CC3)c21 (stereo partly drawn) [INY.03.041.01]
logFC ([2]; experiment wp118): −0.4361 | logFC STK17A ([2]; experiment wp118): −0.4361 | logFC STK17A ([2]; experiment wp135, 8 hr): −0.497

O=C(COc1cccc2c1C(=O)N(C1CCC(=O)NC1=O)C2=O)NCCCCCCCN1CCc2cc(Nc3ncc(C4CC4)c(NCCCNC(=O)C4CCC4)n3)ccc2C1 (stereo not drawn) [BSJ.04.178]
logFC ([2]; experiment wp134): −0.7107 | logFC STK17A ([2]; experiment wp134): −0.7107

O=C1CCC(N2C(=O)c3cccc(NCCCCCCCCN4CCC(NC(=O)c5[nH]ncc5NC(=O)c5c(Cl)cccc5Cl)CC4)c3C2=O)C(=O)N1 (stereo not drawn) [MFH.5.126.1]
logFC ([2]; experiment wp076): −0.8984 | logFC STK17A ([2]; experiment wp076): −0.8984

CS(=O)(=O)Nc1cccc(-c2csc3cnc(Nc4ccc(N5CCN(CCCCCOc6cccc7c6C(=O)N(C6CCC(=O)NC6=O)C7=O)CC5)cc4)nc23)c1 (stereo not drawn) [DB0614, N-(3-(2-((4-(4-(5-((2-(2,6-Dioxopiperidin-3-yl)-1,3-dioxoisoindolin-4-yl)oxy)pentyl)piperazin-1-yl)phenyl)amino)thieno[3,2-d]pyrimidin-7-yl)phenyl)methanesulfonamide]
logFC ([2]; experiment wp045): −1.128 | logFC STK17A ([2]; experiment wp045): −1.128 | logFC ([2]; experiment wp117): −0.969 | logFC STK17A ([2]; experiment wp117): −0.969 | logFC ([3]; experiment wp045): −0.5244 | logFC MAPK9 ([3]; experiment wp045): −0.5244 | logFC ([3]; experiment wp117): −0.564 | logFC MAPK9 ([3]; experiment wp117): −0.564

Cc1cc(Nc2ncc(Br)c(Nc3cccc(F)c3C(N)=O)n2)ccc1S(=O)(=O)NCCOCCOCCOCCOCCNc1cccc2c1C(=O)N(C1CCC(=O)NC1=O)C2=O (stereo not drawn) [TMX.02.174]
logFC ([3]; experiment wp146): −1.031 | logFC MAPK9 ([3]; experiment wp146): −1.031

Cc1cnc(Nc2ccc(N3CCN(CCCCCCC(=O)N[C@H](C(=O)N4C[C@H](O)C[C@H]4C(=O)N[C@@H](C)c4ccc(-c5scnc5C)cc4)C(C)(C)C)CC3)cc2)nc1Nc1cccc(S(=O)(=O)NC(C)(C)C)c1 [JWG.123]
logFC ([2]; experiment wp195): −0.6451 | logFC STK17A ([2]; experiment wp195): −0.6451

NC(=O)c1c(F)cccc1Nc1nc(Nc2ccc(S(=O)(=O)NCCOCCOCCOCCOCCNc3cccc4c3C(=O)N(C3CCC(=O)NC3=O)C4=O)cc2)ncc1Br (stereo not drawn) [TMX.02.138]
logFC ([3]; experiment wp146): −1.518 | logFC MAPK9 ([3]; experiment wp146): −1.518

Cc1ncsc1-c1ccc([C@H](C)NC(=O)[C@@H]2C[C@@H](O)CN2C(=O)[C@@H](NC(=O)CCCCCN2CCN(c3ccc(Nc4ncc5scc(-c6cccc(NS(C)(=O)=O)c6)c5n4)cc3)CC2)C(C)(C)C)cc1 [RSS0680, (2S,4R)-1-((S)-3,3-Dimethyl-2-(6-(4-(4-((7-(3-(methylsulfonamido)phenyl)thieno[3,2-d]pyrimidin-2-yl)amino)phenyl)piperazin-1-yl)hexanamido)butanoyl)-4-hydroxy-N—((S)-1-(4-(4-methylthiazol-5yl)phenyl)ethyl)pyrrolidine-2-carboxamide]
logFC ([2]; experiment wp080): −1.118 | logFC STK17A ([2]; experiment wp080): −1.118 | logFC ([2]; experiment wp117): −1.379 | logFC STK17A ([2]; experiment wp117): −1.379

Cc1ncsc1-c1ccc([C@H](C)NC(=O)[C@@H]2C[C@@H](O)CN2C(=O)[C@@H](NC(=O)CCCCCN2CCc3cc(Nc4ncc(C5CC5)c(NCCCNC(=O)C5CCC5)n4)ccc3C2)C(C)(C)C)cc1 [BSJ.05.026]
logFC ([2]; experiment wp195): −0.5209 | logFC STK17A ([2]; experiment wp195): −0.5209

CCc1cnn2c(N(Cc3ccc(N)nc3)C(=O)CCOCCOCCOCCNC(=O)CNc3cccc4c3C(=O)N(C3CCC(=O)NC3=O)C4=O)cc(N3CCCC[C@H]3CCO)nc12 (stereo partly drawn) [MFH.5.115.2]
logFC ([2]; experiment wp076): −0.6277 | logFC STK17A ([2]; experiment wp076): −0.6277
